Several values for one entry are separate records, joined by “and”; a condition that tells them apart may be missing. Identical values can stand only once. Inconclusive results and toxic doses are left out.
Test system: B6C3F1 mice, B16 melanoma ip, median survival T/C
Experiment: NCI In Vivo Anticancer Drug Screen. Data for tumor model B16 Melanoma (intraperitoneal) in B6C3F1 mice
Conditions: endpoint: median survival time, schedule: Q01DX009 (ip), higher = longer survival
Summary of the method: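 Mice bearing transplanted tumor were dosed with compound or vehicle, and survival was recorded. Activity is expressed as the treated-group measurement (T) divided by the vehicle control measurement (C).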

[1] = dose: 25.0 mg/kg/injection, vehicle: saline with Tween-80
[2] = dose: 50.0 mg/kg/injection, vehicle: saline with Tween-80
[3] = dose: 100.0 mg/kg/injection, vehicle: saline with Tween-80
[4] = dose: 200.0 mg/kg/injection, vehicle: saline with Tween-80
[5] = dose: 3.12 mg/kg/injection, vehicle: saline
[6] = dose: 6.25 mg/kg/injection, vehicle: saline
[7] = dose: 12.5 mg/kg/injection, vehicle: saline
[8] = dose: 25.0 mg/kg/injection, vehicle: saline
[9] = dose: 50.0 mg/kg/injection, vehicle: saline
[10] = dose: 100.0 mg/kg/injection, vehicle: saline
[11] = dose: 25.0 mg/kg/injection, vehicle: distilled water + Tween-80
[12] = dose: 100.0 mg/kg/injection, vehicle: Klucel (hydroxypropylcellulose) (HPC)
[13] = dose: 200.0 mg/kg/injection, vehicle: Klucel (hydroxypropylcellulose) (HPC)
[14] = dose: 400.0 mg/kg/injection, vehicle: Klucel (hydroxypropylcellulose) (HPC)

`COC1(OC)C2C=CC1CC2` was tested, and the T/C (dose: 12.5 mg/kg/injection, vehicle: saline with Tween-80) was 108 % of control and 98 % of control, the T/C [1] was 101 % of control and the T/C [2] was 113 % of control and 102 % of control. For the same compound, the T/C [3] was 114 % of control and 100 % of control, the T/C [4] was 100 % of control and 102 % of control and the T/C (dose: 400.0 mg/kg/injection, vehicle: saline with Tween-80) was 98 % of control.
In the case of `CC(=O)OCC1OC(n2cc(CBr)nn2)C(OC(C)=O)C(OC(C)=O)C1OC(C)=O` (centres undefined), the T/C [5] is reported as 100 % of control, the T/C [6] is reported as 103 % of control and the T/C [7] is reported as 102 % of control. For the same compound, the T/C [8] was 113 % of control and 114 % of control, the T/C [9] was 117 % of control and 119 % of control and the T/C [10] was 105 % of control.
For `CCCC(NC)C(CC)CN` (centres undefined), the T/C [7] was 93 % of control, the T/C [8] was 100 % of control and the T/C [9] was 110 % of control. For the same compound, the T/C [10] was 105 % of control.
In the case of `FC(F)(F)c1ccc2c(c1)N(CCCN1CCN(CCN3CCCCC3)CC1)c1ccccc1S2`, the T/C (dose: 0.78 mg/kg/injection, vehicle: saline) is reported as 94 % of control, the T/C (dose: 1.56 mg/kg/injection, vehicle: saline) is reported as 109 % of control and 89 % of control and the T/C [5] is reported as 118 % of control and 99 % of control. For the same compound, the T/C [6] was 99 % of control and 101 % of control, the T/C [7] was 98 % of control and the T/C [8] was 94 % of control.
`Nc1ncnc2c1c1c(=O)[nH]c(=O)[nH]c1n2C1OC(CO)C(O)C1O` (centres undefined) was tested, and the T/C [11] was 123 % of control and the T/C (dose: 200.0 mg/kg/injection, vehicle: distilled water + Tween-80) was 172 % of control.
For `Nc1cc(Cl)c2[nH]cnc2n1`, the T/C (dose: 6.25 mg/kg/injection, vehicle: water) was 102 % of control, the T/C (dose: 12.5 mg/kg/injection, vehicle: distilled water + Tween-80) was 95 % of control and the T/C (dose: 12.5 mg/kg/injection, vehicle: water) was 106 % of control. For the same compound, the T/C [11] was 88 % of control, the T/C (dose: 25.0 mg/kg/injection, vehicle: water) was 110 % of control and the T/C (dose: 50.0 mg/kg/injection, vehicle: distilled water + Tween-80) was 99 % of control. For the same compound, the T/C (dose: 50.0 mg/kg/injection, vehicle: water) was 98 % of control, the T/C (dose: 100.0 mg/kg/injection, vehicle: distilled water + Tween-80) was 96 % of control and the T/C (dose: 100.0 mg/kg/injection, vehicle: water) was 100 % of control. For the same compound, the T/C (dose: 200.0 mg/kg/injection, vehicle: water) was 100 % of control.
In the case of `CCN(CC)CCNc1ccc(C)c2sc3ccc(O)cc3c(=O)c12`, the T/C [2] is reported as 150 % of control and the T/C [3] is reported as 191 % of control.
For `CC1=NNC(=O)C1CCO` (centres undefined), the T/C (dose: 12.5 mg/kg/injection, vehicle: Klucel (hydroxypropylcellulose) (HPC)) was 98 % of control, the T/C (dose: 25.0 mg/kg/injection, vehicle: Klucel (hydroxypropylcellulose) (HPC)) was 104 % of control and the T/C (dose: 50.0 mg/kg/injection, vehicle: Klucel (hydroxypropylcellulose) (HPC)) was 98 % of control. For the same compound, the T/C [12] was 98 % of control, the T/C [13] was 96 % of control and the T/C [14] was 96 % of control.
With `CCCC(NC(=O)OCc1ccccc1)C(=O)NC(Cc1c[nH]c2ccccc12)C(=O)O` (centres undefined) the T/C [12] was 107 % of control, the T/C [13] was 99 % of control and the T/C [14] was 100 % of control.
`COc1ccc(C(C)c2cc3c(cc2OC)OCO3)cc1` (centres undefined) was tested, and the T/C [1] was 99 % of control, the T/C [2] was 99 % of control and the T/C [3] was 100 % of control. For the same compound, the T/C [4] was 104 % of control.

Reference: PubChem BioAssay AID200 (DTP/NCI, 2004)
